Counter-ions that a name gives are not always drawn.
Key:
HCT116 [1] = assay: AC50 cell viability (CellTiter-Glo); higher = less potent; details: 48 h
HCT116 [2] = assay: efficacy (fitted maximal change in viability relative to DMSO control); higher = less cytotoxic (negative = loss of viability); details: 48 h
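Throughout, for AC50 cell viability (CellTiter-Glo): HCT116 colorectal carcinoma cells screened at five concentrations per compound, luminescent viability scaled between DMSO wells and empty wells on each plate, curves fitted per compound.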
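Throughout, for efficacy (fitted maximal change in viability relative to DMSO control): Luminescence-based viability readout, five doses per compound, normalized against on-plate DMSO and empty-well controls, followed by dose-response curve fitting for every drug.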

Row | SMILES | AC50 cell viability (HCT116 [1]) | efficacy (HCT116 [2])
1 | O=C\1NC(=O)\C(=C1C2=C[NH]C3=C2C=CC=C3)C4=C[NH]C5=C4C=CC=C5 [Bisindolylmaleimide] | 18.6 µM | -85.7%
2 | Cc1c(N)nc([C@H](CC(N)=O)NC[C@@H](N)C(N)=O)nc1C(=O)N[C@H](C(=O)N[C@@H](C)[C@H](O)[C@@H](C)C(=O)N[C@@H](C(=O)NCCc1nc(-c2nc(C(=O)NCCC[S+](C)C)cs2)cs1)[C@@H](C)O)C(O[C@H]1O[C@H](CO)[C@H](O)[C@@H](O)[C@H]1O[C@H]1O[C@H](CO)[C@@H](O)[C@H](OC(N)=O)[C@@H]1O)c1c[nH]cn1 (stereo not given in full) [Bleomycin sulfate] | 1.62 µM | -34.2%
3 | CC(C)C[C@H](NC(=O)[C@H](Cc1ccccc1)NC(=O)c1cnccn1)B(O)O [Bortezomib] | 0.0132 µM | -94.1%
4 | COc1cc(Nc2c(C#N)cnc3cc(OCCCN4CCN(C)CC4)c(OC)cc23)c(Cl)cc1Cl [Bosutinib] | 4.68 µM | -93.7%
5 | Cc1c(-c2ccc(-c3ccccc3F)cc2)nc2ccc(F)cc2c1C(=O)O [Brequinar] | 0.209 µM | -62.1%
6 | COc1cc(OC)c(/C=C/[S+](=O)([O-])Cc2ccc(OC)c(OP(=O)(O)O)c2)c(OC)c1 [Briciclib] | 0.0468 µM | -61.6%
7 | COc1cc(N2CCC(N3CCN(C)CC3)CC2)ccc1Nc1ncc(Cl)c(Nc2ccccc2P(C)(C)=O)n1 [Brigatinib] | 0.525 µM | -75.3%
8 | Cc1ccc(Sc2ccccc2N2CCNCC2)c(C)c1 [Brintellix] | 11.8 µM | -92.6%
9 | Cc1cc2c(F)c(Oc3ncnn4cc(OC[C@@H](C)O)c(C)c34)ccc2[nH]1 [Brivanib] | 9.34 µM | -80.3%
10 | COC(=O)[C@@]12OC[C@]34[C@H]([C@@H](O)[C@@H]1O)[C@@]1(C)CC(=O)C(O)=C(C)[C@@H]1C[C@H]3OC(=O)[C@H](OC(=O)/C=C(\C)C(C)C)[C@@H]24 [Bruceantin] | 0.00833 µM | -71.9%
11 | CCCC1OC2C[C@H]3[C@@H]4CCC5=CC(=O)C=C[C@]5(C)[C@H]4C(O)C[C@]3(C)[C@]2(C(=O)CO)O1 (stereo not given in full) [Budesonide] | 18.6 µM | -52.3%
12 | Clc1ccc(CCC(Cn2ccnc2)Sc2c(Cl)cccc2Cl)cc1 (stereo not given) [Butoconazole nitrate] | 20.9 µM | -51.6%
13 | COc1ccc([S+](=O)([O-])Nc2cc(-c3c(O)ccc4ccccc34)c(O)c3ccccc23)cc1 [C-188-9] | 26.3 µM | -95.1%
14 | CCCNC(=O)[C@H]1O[C@@H]1C(=O)N[C@H](C(=O)N1CCC[C@H]1C(=O)OC)C(C)CC (stereo not given in full) [CA-074 Me] | 18.6 µM | -88.8%
15 | OCCNC1CCCc2c1[nH]c1ccc(-c3ccccc3)cc21 (stereo not given) [CASIN] | 8.33 µM | -95.3%
16 | Cc1cc2c(C(N)=O)cccc2n1-c1nc2c(c(NCc3ccccc3)n1)COCC2 [CB-5083] | 0.833 µM | -88.7%
17 | CC(=O)c1ccc2c(c1)c1cc(C(C)=O)ccc1n2CCNC(C)C [CBL-0137] | 0.417 µM | -69.6%
18 | CCN1C(=O)C\N=C/2N\C=C(/N=C12)C3=C(C)N=C(C=C3)C4=NN=C[NH]4 [CC-115] | 7.42 µM | -71%
19 | CO[C@H]1CC[C@H](N2C(=O)CNc3ncc(-c4ccc(C(C)(C)O)nc4)nc32)CC1 [CC-223] | 9.34 µM | -85.5%
20 | c1cc(OCCN2CCCCC2)cc(-c2n[nH]c3ccc(-c4nc[nH]n4)cc23)c1 [CC-401] | 14.8 µM | -70.1%
21 | Cc1ccc(NC(=O)NCc2ccc3c(c2)CN(C2CCC(=O)NC2=O)C3=O)cc1Cl (stereo not given) [CC-885] | 0.0934 µM | -42.4%
22 | COC1CC(C(=O)c2ccc3c(N)ncc(-c4ccc(-c5cnn(C)c5)cc4)c3n2)C1 (stereo not given) [CDK8i-51] | 5.25 µM | -34.9%
23 | Cc1ccc(Nc2cc(-c3cccc(N4C(=O)c5ccccc5C4=O)c3)ncn2)cc1N[S+](C)(=O)[O-] [CDK9 Inhibitor] | 20.9 µM | -73.6%
24 | COc1cc2c(cc1OC(C)C)[C@H](c1ccc(Cl)cc1)N(c1ccc(N(C)C[C@H]3CC[C@H](N4CCN(C)C(=O)C4)CC3)cc1)C(=O)C2 [CGM-097] | 14.8 µM | -123%
25 | ClC1=CC\2=C(NC(=O)\C(=C2N[C@@H]3CN4CCC3CC4)C5=NC6=C([NH]5)C=CC=C6)C=C1 [CHIR-124] | 0.833 µM | -80.9%
26 | Cn1c(Nc2ccc(C(F)(F)F)cc2)nc2cc(Oc3ccnc(-c4nc(C(F)(F)F)c[nH]4)c3)ccc21 [CHIR-265] | 5.25 µM | -108%
27 | CC(=O)Nc1cc(Oc2ccc3c(nc(Nc4ccc(F)cc4F)n3C)c2C)ccn1 [CHZ868] | 0.833 µM | -67.4%
28 | OC(=O)/C1=C/CCN(CCOC(C2=CC=C(C=C2)C(F)(F)F)C3=CC=C(C=C3)C(F)(F)F)C1 [CI-966] | 18.6 µM | -37.1%

Row | SMILES | AC50 cell viability (HCT116 [1]) | efficacy (HCT116 [2])
29 | CC(C)n1cnc2c(NCCCCCCNC(=O)OC(C)(C)C)nc(NCCO)nc21 [CK-59] | 26.3 µM | -79.7%
30 | COc1c(C)cnc(Cn2cnc3c(Cl)nc(N)nc32)c1C [CNF-2024] | 0.148 µM | -57%
31 | C=CC(=O)Nc1cccc(Nc2nc(Nc3ccc(Oc4ccnc(C(=O)NC)c4)cc3)ncc2F)c1 [CNX-774] | 14.8 µM | -111%
32 | C=CC(=O)Nc1cccc(Nc2nc(Nc3ccc(NC4CN(CCF)C4)cc3OC)ncc2C(F)(F)F)c1 [CNX-2006] | 10.5 µM | -105%
33 | CC1=C(C)C\2=C(S1)[N]3C(=NN=C3C(CC(N)=O)\N=C2C4=CC=C(Cl)C=C4)C (stereo not given) [CPI-203] | 0.295 µM | -62.8%
34 | CC1=C(C)C\2=C(S1)[N]3C(=NN=C3[C@H](CC(N)=O)\N=C2C4=CC=C(Cl)C=C4)C [CPI-203] | 0.372 µM | -58.5%
35 | Cc1noc2c1-c1ccccc1C(c1ccc(Cl)cc1)=N[C@H]2CC(N)=O [CPI-0610] | 1.05 µM | -65.4%
36 | C[C@@H]1CC(=O)Nc2cccc(-c3ccc4c(c3)c(-c3cnn(C)c3)nn4C)c2N1 [CPI-637] | 11.8 µM | -82.6%
37 | C[C@@H]1CC(=O)Nc2cccc(-c3cnn(C(C)(C)C)c3)c2N1 [CPI-703] | 16.6 µM | -37.4%
38 | O=C(NO)C1(C[S+](=O)([O-])c2ccc(Oc3ccc(Cl)cc3)cc2)CCOCC1 [CTS-1027] | 20.9 µM | -61.5%
39 | C#Cc1cccc(Nc2ncnc3cc(OC)c(OCCCCCCC(=O)NO)cc23)c1 [CUDC-101] | 0.332 µM | -81.3%
40 | CN(C)c1cc2c(cc1Sc1nc3c(N)nccc3n1CCNCC(C)(C)C)OCO2 [CUDC-305] | 0.468 µM | -66.5%
41 | COc1ccc(-c2nc(N3CCOCC3)c3sc(CN(C)c4ncc(C(=O)NO)cn4)cc3n2)cn1 [CUDC-907] | 0.0372 µM | -96.8%
42 | COc1ccc(CNc2nc(N(CCO)CCO)nc3c2ncn3C(C)C)cc1 [CVT-313] | 3.32 µM | -54.3%
43 | CN1CCCN(CC1)C2=CC=C3C(=O)\C(=C/4SC5=C(C=CC=C5)N4C3=N2)C(=O)NCC6=CN=C(C)C=N6 [CX-5461] | 1.35 µM | -49.8%
44 | CN1CCCN(C(=O)c2cccc(-c3ccc(/C=C4/C(=O)Nc5ccc(Cl)cc54)o3)c2)CC1 [CX-6258] | 7.42 µM | -97.8%
45 | Cc1nc(N)sc1-c1ccnc(Nc2ccc(N3CCOCC3)cc2)n1 [CYC-116] | 2.09 µM | -61%
46 | CO[C@H]1C[C@H]2OC[C@@]2(OC(C)=O)[C@H]3[C@H](OC(=O)C4=CC=CC=C4)[C@]5(O)C[C@H](OC(=O)[C@H](O)[C@@H](NC(=O)OC(C)(C)C)C6=CC=CC=C6)/C(=C(/[C@@H](OC)C(=O)[C@]13C)C5(C)C)C [Cabazitaxel] | 0.00263 µM | -57.4%
47 | COc1cc2nccc(Oc3ccc(NC(=O)C4(C(=O)Nc5ccc(F)cc5)CC4)cc3)c2cc1OC [Cabozantinib] | 7.42 µM | -65.4%
48 | CC(N[C@H]1CCCC[C@@H]1NC(=O)c1ccc(Cl)cc1)c1cccc2ccccc12 (stereo not given in full) [Calhex-231] | 9.34 µM | -92.8%
49 | C[C@@H](NCc1cc2ccccc2[nH]1)c1cccc2ccccc12 [Calindol] | 13.2 µM | -94.8%
50 | Clc1ccc(C(c2ccc(Cl)cc2)[n+]2ccn(CC(OCc3ccc(Cl)cc3Cl)c3ccc(Cl)cc3Cl)c2)cc1 (stereo not given) [Calmidazolium chloride] | 10.5 µM | -100%
51 | Cc1ccc([C@@H]2O[C@H](CO)[C@@H](O)[C@H](O)[C@H]2O)cc1Cc1ccc(-c2ccc(F)cc2)s1 [Canagliflozin] | 23.5 µM | -83.7%
52 | C=CC(=O)Nc1cc2c(Nc3ccc(F)c(Cl)c3)ncnc2cc1OCCCN1CCOCC1 [Canertinib] | 14.8 µM | -116%
53 | CCCCCC1=CC(=C([C@@H]2\C=C(C)/CC[C@H]2C(C)=C)C(=C1)O)O [Cannabidiol] | 20.9 µM | -84.5%
54 | C[C@@]12C(=O)OC(=O)[C@]1(C)[C@H]1CC[C@@H]2O1 [Cantharidin] | 9.34 µM | -86.9%
55 | CC(C)C[C@H](NC(=O)[C@H](CCc1ccccc1)NC(=O)CN1CCOCC1)C(=O)N[C@@H](Cc1ccccc1)C(=O)N[C@@H](CC(C)C)C(=O)[C@@]1(C)CO1 [Carfilzomib] | 0.0118 µM | -93.6%

From the supplement of paper PMC10290057
